According to US11485742B2, “2-azaspiro[3.4]octane derivatives as M4 agonists” (NOVARTIS AG, priority 2019, dated 2022):

Target: T1, Cloned human M1 receptor (CHRM1) (Homo sapiens, UniProt P11229)
T1 construct: expressed in transfected cells; host or cells: HEK293
T1 sequence (P11229 1-460): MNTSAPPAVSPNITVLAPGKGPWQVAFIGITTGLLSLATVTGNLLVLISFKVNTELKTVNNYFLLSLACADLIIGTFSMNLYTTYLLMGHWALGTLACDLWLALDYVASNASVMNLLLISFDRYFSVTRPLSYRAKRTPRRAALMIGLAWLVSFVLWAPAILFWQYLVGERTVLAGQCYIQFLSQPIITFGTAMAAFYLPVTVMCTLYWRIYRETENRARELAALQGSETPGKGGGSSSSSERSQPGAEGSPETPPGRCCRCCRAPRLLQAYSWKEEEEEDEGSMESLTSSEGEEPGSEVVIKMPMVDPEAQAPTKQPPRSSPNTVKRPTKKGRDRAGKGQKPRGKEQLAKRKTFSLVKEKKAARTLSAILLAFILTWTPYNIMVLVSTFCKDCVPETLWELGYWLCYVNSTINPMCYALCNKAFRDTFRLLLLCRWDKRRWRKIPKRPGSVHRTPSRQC
Experiment: CHRM1 Ca++ Flux Assay (HEK293 M1 cells, agonist mode)
Format: cell-based
Conditions: for M1 FDSS PA % / Emax: Percent Activity (PA); for EC50: geometric mean if tested more than once, read-out: M1 FDSS EC50; for Emax: read-out: M1 FDSS PA %
Method: The above examples were characterized by measuring the intracellular mobilization of Ca^++ ions caused by signaling events mediated by the receptor. The Intra-cellular Calcium flux levels were captured by the highly sensitive Ca^++ indicator, Calcium Assay Kit (BD Biosciences; Catalog Number 640178. The fluorescent activity from all receptors were monitored by the fluorescent imager, FDSS 7000EX (Hamamatsu) over a span of 3 minutes. The change in Calcium flux was readily captured upon activation with the muscarinic orthosteric agonist, Carbachol.
Cloned human M1 receptor (CHRM1) was stably expressed in HEK293 cells and were grown and maintained in a monolayer culture with DMEM/High Glucose (Life Technologies) supplemented with 10% Fetal Bovine Serum, 1×Pen-Strep, and 0.5 mg/mL Geneticin in a humidified atmosphere (5% CO2) at 37° C. The cultures were grown to 90% confluency in T150 flasks (Corning) and washed with 1×DPBS and lifted with 0.05% Trypsin (Life Technologies). The cells were then spun (1K rpm, 3 minutes) and frozen using Recovery Cell Culture Freezing Media (Gibco Technologies). Cells were stored in liquid nitrogen and thawed a day before the assay.
Prior to the day of the assay, stable HEK293 M1 cells were thawed and plated on 384 well black walled clear bottom TC treated plates (Greiner Cat #781091) at 25K cells/well with DMEM/High Glucose supplemented with 10% FBS (Hyclone) Pen-Strep (Life Technologies) and kept overnight in a humidified atmosphere (5% CO2) at 37° C. The following day, cells were loaded with 20 uL Ca^++ dye (BD Biosciences) using Loading Buffer (HBSS +Ca/+Mg, 20 mM HEPES) and placed back in cell incubator for a minimum of 1 hour. The dye was replaced with 45 μL Assay Buffer (HBSS −Ca/−Mg, 20 mM HEPES) and kept at room temperature prior to running on cell imager. Compounds were prepared in Assay Buffer and 5 uL was added to the cells. The FDSS 7000EX (Hamamatsu) was used to acquire Ca++ traces for 3 minutes from cells treated with 11 point dose in triplicate in order to generate dose response curves in agonist mode. All compounds were serially diluted in DMSO then prepared in Assay Buffer for Ca^++ flux studies. The dose response curves were generated from the average of triplicate wells obtained from each data point and used a non-linear regression of four parameter dose response algorithm. The Percent Activity (PA) was measured to EC100 of Carbachol.
If an Example was tested more than once in an assay, then the values below represent the geometric mean of the results from each independent experiment.

CC1(C)C[C@@H](Oc2ccc(F)cc2C2CCN([C@@H]3COC4(C3)CN(c3nnco3)C4)CC2)CO1 (single isomer, unassigned) [Example 2N, (S)-7-(4-(2-(((R)-5,5-dimethyltetrahydrofuran-3-yl)oxy)-5-fluorophenyl)piperidin-1-yl)-2-(1,3,4-oxadiazol-2-yl)-5-oxa-2-azaspiro[3.4]octane or (S)-7-(4-(2-(((S)-5,5-dimethyltetrahydrofuran-3-yl)oxy)-5-fluorophenyl)piperidin-1-yl)-2-(1,3,4-oxadiazol-2-yl)-5-oxa-2-azaspiro[3.4]octane]
M1 FDSS PA %: 71%
EC50: 5090 nM

O[C@H]1CC[C@@H](c2ccc(F)cc2C2CCN([C@@H]3COC4(C3)CN(c3nnco3)C4)CC2)CC1 (single isomer, unassigned) [Example 3I, (1R,4s)-4-(2-(1-((S)-2-(1,3,4-oxadiazol-2-yl)-5-oxa-2-azaspiro[3.4]octan-7-yl)piperidin-4-yl)-4-fluorophenyl)cyclohexan-1-ol or (1S,4r)-4-(2-(1-((S)-2-(1,3,4-oxadiazol-2-yl)-5-oxa-2-azaspiro[3.4]octan-7-yl)piperidin-4-yl)-4-fluorophenyl)cyclohexan-1-ol]
M1 FDSS PA %: 76%
EC50: 3310 nM

c1ccc(C2CCN([C@@H]3COC4(C3)CN(c3ncco3)C4)CC2)c(-c2cncnc2)c1 [Example 4R, (S)-2-(oxazol-2-yl)-7-(4-(2-(pyrimidin-5-yl)phenyl)piperidin-1-yl)-5-oxa-2-azaspiro[3.4]octane]
Emax: 95%
EC50: 128 nM

COCCOc1ccc(F)cc1C1CCN([C@@H]2COC3(C2)CN(c2ncns2)C3)CC1 [Example 5D, (S)-7-(4-(5-fluoro-2-(2-methoxyethoxy)phenyl)piperidin-1-yl)-2-(1,2,4-thiadiazol-5-yl)-5-oxa-2-azaspiro[3.4]octane]
Emax: 60%
EC50: 1150 nM

Fc1cc(OCC2(F)COC2)c(C2CCN([C@@H]3COC4(C3)CN(c3ncco3)C4)CC2)cc1F [Example 4P, (S)-7-(4-(4,5-difluoro-2-((3-fluorooxetan-3-yl)methoxy)phenyl)piperidin-1-yl)-2-(oxazol-2-yl)-5-oxa-2-azaspiro[3.4]octane]
Emax: 89%
EC50: 334 nM

Fc1ccc(OC[C@@H]2CCOC2)c(C2CCN([C@@H]3COC4(C3)CN(c3nncs3)C4)CC2)c1 [Example 5I, (S)-7-(4-(5-fluoro-2-(((R)-tetrahydrofuran-3-yl)methoxy)phenyl)piperidin-1-yl)-2-(1,3,4-thiadiazol-2-yl)-5-oxa-2-azaspiro[3.4]octane]
Emax: 69%
EC50: 775 nM

Fc1ccc(O[C@@H]2CCOC2)c(C2CCN([C@@H]3COC4(C3)CN(c3nncs3)C4)CC2)c1 [Example 5H, (S)-7-(4-(5-fluoro-2-(((R)-tetrahydrofuran-3-yl)oxy)phenyl)piperidin-1-yl)-2-(1,3,4-thiadiazol-2-yl)-5-oxa-2-azaspiro[3.4]octane]
Emax: 67%
EC50: 432 nM

Fc1ccc([C@H]2CCOC2)c(C2CCN([C@@H]3COC4(C3)CN(c3nnco3)C4)CC2)c1 (single isomer, unassigned) [Example 3E, (S)-7-(4-(5-fluoro-2-((R)-tetrahydrofuran-3-yl)phenyl)piperidin-1-yl)-2-(1,3,4-oxadiazol-2-yl)-5-oxa-2-azaspiro[3.4]octane or (S)-7-(4-(5-fluoro-2-((S)-tetrahydrofuran-3-yl)phenyl)piperidin-1-yl)-2-(1,3,4-oxadiazol-2-yl)-5-oxa-2-azaspiro[3.4]octane]
M1 FDSS PA %: 86%
EC50: 695 nM

Fc1cc(F)c(O[C@@H]2CCOC2)c(C2CCN([C@@H]3COC4(C3)CN(c3nnco3)C4)CC2)c1 [Example 2CC, (S)-7-(4-(3,5-difluoro-2-(((R)-tetrahydrofuran-3-yl)oxy)phenyl)piperidin-1-yl)-2-(1,3,4-oxadiazol-2-yl)-5-oxa-2-azaspiro[3.4]octane]
Emax: 85%
EC50: 2180 nM

CC(C)(O)[C@H]1C[C@@H](Oc2ccc(F)cc2C2CCN([C@@H]3COC4(C3)CN(c3ncco3)C4)CC2)C1 (single isomer, unassigned) [Example 4T, 2-((1R,3s)-3-(4-fluoro-2-(1-((S)-2-(oxazol-2-yl)-5-oxa-2-azaspiro[3.4]octan-7-yl)piperidin-4-yl)phenoxy)cyclobutyl)propan-2-ol or 2-((1S,3r)-3-(4-fluoro-2-(1-((S)-2-(oxazol-2-yl)-5-oxa-2-azaspiro[3.4]octan-7-yl)piperidin-4-yl)phenoxy)cyclobutyl)propan-2-ol]
M1 FDSS PA %: 63%
EC50: 909 nM

Fc1ccc(OC[C@@H]2CCOC2)c(C2CCN([C@@H]3COC4(C3)CN(c3nnco3)C4)CC2)c1 [Example 1B, (S)-7-(4-(5-fluoro-2-(((R)-tetrahydrofuran-3-yl)methoxy)phenyl)piperidin-1-yl)-2-(1,3,4-oxadiazol-2-yl)-5-oxa-2-azaspiro[3.4]octane]
Emax: 72%
EC50: 598 nM

OC[C@H]1C[C@H](Oc2ccc(F)cc2C2CCN([C@@H]3COC4(C3)CN(c3nnco3)C4)CC2)C1 (single isomer, unassigned) [Example 2HH, ((1S,3r)-3-(2-(1-((S)-2-(1,3,4-oxadiazol-2-yl)-5-oxa-2-azaspiro[3.4]octan-7-yl)piperidin-4-yl)-4-fluorophenoxy)cyclobutyl)methanol or ((1R,3s)-3-(2-(1-((S)-2-(1,3,4-oxadiazol-2-yl)-5-oxa-2-azaspiro[3.4]octan-7-yl)piperidin-4-yl)-4-fluorophenoxy)cyclobutyl)methanol]
M1 FDSS PA %: 96%
EC50: 2570 nM

Fc1ccc(O[C@@H]2CCOC2)c(C2CCN([C@@H]3COC4(C3)CN(c3nnco3)C4)CC2)c1 [Example 1D, (S)-7-(4-(5-fluoro-2-(((R)-tetrahydrofuran-3-yl)oxy)phenyl)piperidin-1-yl)-2-(1,3,4-oxadiazol-2-yl)-5-oxa-2-azaspiro[3.4]octane]
Emax: 69%
EC50: 609 nM

Fc1cc(F)c(OCC2COC2)c(C2CCN([C@@H]3COC4(C3)CN(c3nnco3)C4)CC2)c1 [Example 2DD, (S)-7-(4-(3,5-difluoro-2-(oxetan-3-ylmethoxy)phenyl)piperidin-1-yl)-2-(1,3,4-oxadiazol-2-yl)-5-oxa-2-azaspiro[3.4]octane]
Emax: 67%
EC50: 1120 nM

C[C@H](Oc1ccc(F)cc1C1CCN([C@@H]2COC3(C2)CN(c2nnco2)C3)CC1)C1CCOCC1 [Example 2X, (S)-7-(4-(5-fluoro-2-((S)-1-(tetrahydro-2H-pyran-4-yl)ethoxy)phenyl)piperidin-1-yl)-2-(1,3,4-oxadiazol-2-yl)-5-oxa-2-azaspiro[3.4]octane or(S)-7-(4-(5-fluoro-2-((R)-1-(tetrahydro-2H-pyran-4-yl)ethoxy)phenyl)piperidin-1-yl)-2-(1,3,4-oxadiazol-2-yl)-5-oxa-2-azaspiro[3.4]octane]
M1 FDSS PA %: 42%
EC50: 11300 nM

Fc1cc(OC2CCOCC2)c(C2CCN([C@@H]3COC4(C3)CN(c3nnco3)C4)CC2)cc1F [Example 2GG, (S)-7-(4-(4,5-difluoro-2-((tetrahydro-2H-pyran-4-yl)oxy)phenyl)piperidin-1-yl)-2-(1,3,4-oxadiazol-2-yl)-5-oxa-2-azaspiro[3.4]octane]
Emax: 64%
EC50: 2900 nM

CC(C)(O)COc1ccc(F)cc1C1CCN([C@@H]2COC3(C2)CN(c2ncco2)C3)CC1 [Example 4K, (S)-1-(4-fluoro-2-(1-(2-(oxazol-2-yl)-5-oxa-2-azaspiro[3.4]octan-7-yl)piperidin-4-yl)phenoxy)-2-methylpropan-2-ol]
Emax: 60%
EC50: 444 nM

COc1ccccc1C1CCN([C@@H]2COC3(C2)CN(c2ncns2)C3)CC1 [Example 5B, (S)-7-(4-(2-methoxyphenyl)piperidin-1-yl)-2-(1,2,4-thiadiazol-5-yl)-5-oxa-2-azaspiro[3.4]octane]
Emax: 22%
EC50: 1570 nM
